Laboratory results taken from patent publication US20210393742A1, “LONG-ACTING INTERLEUKIN-15 RECEPTOR AGONIST IN COMBINATION WITH ANOTHER PHARMACOLOGICALLY ACTIVE AGENT” (Nektar Therapeutics, priority 2018, published 2021).

Tests used:
NK cells [1] = assay: Granzyme B expression per cell in bone marrow NK cells of Daudi lymphoma bearing mice (Example 11); format: in vivo; details: bone marrow day 24; Conjugate 1 0.3 mg/kg; antibody 0.5 mg/kg
Description: (§1) Balb/c mice bearing Daudi B cell lymphoma tumors in the bone marrow (n=6/group) were intraperitoneally administered a single 0.5 mg/kg dose of the human CD38 protein targeting clinical antibody daratumumab (DARZALEX®), Janssen Biotech) or a nonspecific control antibody with a matching isotype on day 14 after Daudi cell intravenous inoculation. Additional groups were treated with (i) mono(mPEG-N-butanamide)40 kD interleukin-15 (Conjugate 1) administered subcutaneously at a dose of 0.3 mg/kg as a single agent on days 14 and 21 after Daudi cell inoculation, or (ii) a combination treatment of Conjugate 1 administered subcutaneously at doses of 0.03 mg/kg or 0.3 mg/kg on days 14 and 21 after Daudi cell inoculation and daratumumab administered intraperitoneally at a dose of 0.5 mg/kg on day 14 after Daudi cell inoculation.
Three days following the second Conjugate 1 administration (day 24 after Daudi inoculation), bone marrow was collected and the NK cell fraction was measured by flow cytometry in total bone marrow.

Daudi B cell lymphoma = assay: Daudi cell counts in bone marrow, low and high doses (Example 14); format: in vivo, mice; details: day 24, single agent
Description: SCID mice (N=6/group) were intravenously inoculated with 10 million Daudi cells on Day 0 and treated with a single dose of a lower or higher dose of daratumumab (0.05 mg/kg or 5 mg/kg IP, 14 days following Daudi cell inoculation) and two doses of either lower or higher dose mono(methoxyPEG-N-butanamide)interleukin-15 (compound 1) (0.03 mg/kg or 0.6 mg/kg intravenously, one dose at each of 14 and 21 days after inoculation). Mice were also treated with the single agent therapies: daratumumab (0.05 mg/kg or 5 mg/kg IP, 14 days following Daudi cell inoculation) or two doses of mono(methoxyPEG-N-butanamide)40 kD interleukin-15 (compound 1) (0.03 mg/kg or 0.6 mg/kg intravenously, 14 and 21 days after inoculation). Daudi cell numbers in the bone marrow were assessed three days following the second dose of mono(methoxyPEG-N-butanamide)40 kD interleukin-15 (day 24) by flow cytometry as shown in FIGS. 17A and 17B.

[2] = test system: HCT-116 colorectal carcinoma cells; assay: Tumor growth inhibition and delay in HCT-116 colorectal carcinoma xenograft model (Example 19); format: in vivo, mice
Description: Tumor growth inhibition was evaluated on day 19 after treatment initiation.
The tumor growth delay was evaluated by measuring tumor volume quadrupling time (TVQT) from baseline tumor volume on treatment initiation day.

NK cells [3] = assay: CD16 surface expression on bone marrow NK cells of Daudi lymphoma bearing mice (Example 10); format: in vivo; details: bone marrow day 24
Description: as §1, with “(DARZALEX®,” for “(DARZALEX®),”
Three days following the second Conjugate 1 administration (day 24 after Daudi inoculation), bone marrow was collected and the NK cell fraction was measured by flow cytometry in total bone marrow. The fraction of NK cells expressing the cell surface CD16 receptor that is known to mediate antibody dependent cellular cytotoxicity mechanism in the presence of tumor targeting antibodies, and the change in CD16 expression per cell basis on NK cells are shown in FIGS. 13A and 13B, respectively.

[4] = test system: H1975 lung carcinoma cells; assay: Tumor growth in H1975 lung tumor model (Example 17); format: in vivo, mice; details: day 27 after treatment initiation; cetuximab 0.25 mg/kg IP x3; Compound 1 0.3 mg/kg IV x3
Description: Delay in loss of tumor growth control was evaluated on day 27 after treatment initiation.

[5] = test system: HT-29 colorectal carcinoma cells; assay: Tumor growth inhibition and delay in HT-29 colorectal carcinoma model (Example 18); format: in vivo, mice; details: day 21 after treatment initiation; cetuximab 40 mg/kg IP x6; Compound 1 0.3 mg/kg IV x3
Description: Tumor growth inhibition was evaluated on day 21 after treatment initiation.
The tumor growth delay (TVQT) was evaluated with the endpoint set as 400% tumor growth from baseline.

KHYG-1 cells = assay: KHYG-1 cell proliferation, CellTiter-Glo 2.0 (Example 7); format: cell-based, human; details: 48 hours
Description: KHYG-1 cells were cultured in RPMI-1640 medium supplemented with 20% FBS, 2 mM L-glutamine, and 20 ng/mL IL-2 (Complete growth medium) in a humidified incubator at 37° C. and 5% CO2.
One day prior to treatment with test compounds, cells were seeded at a density of 500,000 viable cells/ml in Complete growth medium and incubated overnight under normal growth conditions. On the day of the assay, KHYG-1 cells were washed 3 times with DPBS, resuspended in assay medium (RPMI-1640 medium supplemented with 20% FBS, 2 mM L-glutamine), and incubated for 4-5 hours at 37° C., 5% CO2. Cells were adjusted to the appropriate density (8×10^5 cells/mL) in assay medium and 50,000 cells/well were aliquoted into wells of a 96-well plate (View-Plate 96, Perkin-Elmer).
Stimulation of KHYG-1 cells was initiated by the transfer of IL-15 or a long-acting IL-15 receptor agonist (mono(mPEG-butanamide)IL-15) to duplicate wells containing cells, followed by 48 hours incubation at 37° C., 5% CO2.
Cell growth in each well was measured by monitoring ATP levels using CellTiter-Glo 2.0, following the manufacturer's instructions. The effect of the long-acting IL-15 receptor agonist on KHYG-1 cell proliferation was compared to IL-15 following 48-hour treatment using CellTiter-Glo 2.0 with the results shown in FIG. 10B.

[6] = Conjugate 1 0.3 mg/kg, antibody 0.5 mg/kg

## mono(methoxyPEG-N-butanamide)40 kD interleukin-15 [Conjugate 1]
NK cells [1]
  Granzyme B mean fluorescence intensity (MFI mean value): 2649
  Relative Granzyme B expression compared to untreated condition: 6.7x increase
Daudi B cell lymphoma; high dose (daratumumab 5 mg/kg; compound 1 0.6 mg/kg)
  intra-bone marrow tumor cells depleted: 69%
Daudi B cell lymphoma; low dose (daratumumab 0.05 mg/kg; compound 1 0.03 mg/kg)
  intra-bone marrow tumor cells depleted: 42%
[2]; day 19 after treatment initiation, cetuximab 40 mg/kg IP x6, Compound 1 0.3 mg/kg IV x3
  tumor growth inhibition: 31%
[2]; tumor volume quadrupling time from baseline
  tumor growth delay (TVQT): 26%
NK cells [3]; Conjugate 1 0.3 mg/kg SC days 14 and 21, antibody 0.5 mg/kg IP day 14
  Fraction of NK cell expressing cell surface CD16 (mean value): 96%
NK cells [3]; [6]
  CD16 mean fluorescence intensity (MFI mean value): 853
  Relative CD16 expression compared to untreated condition: 1.8x increase
[4]
  tumor growth control: no tumor growth inhibition
[5]
  tumor growth inhibition: no tumor growth inhibition
KHYG-1 cells
  maximal proliferative response: comparable to the response produced by IL-15
